Test results published in article PMC8568530, “Inhibition of Vascular Smooth Muscle and Cancer Cell Proliferation by New VEGFR Inhibitors and Their Immunomodulator Effect: Design, Synthesis, and Biological Evaluation” (Oxidative Medicine and Cellular Longevity, 2021).
Entries after “also recorded” stand apart in the source; their conditions may differ.

Columns and labels:
[1] = test system: HCT-116; assay: MTT antiproliferative assay, HCT-116; format: cell-based; conditions: Homo sapiens, colorectal carcinoma HCT-116
Experimental: (§1) The in vitro antiproliferative activities of the newly synthesized compounds were evaluated against a panel of three human tumor cell lines, namely, breast cancer (MCF-7), hepatocellular carcinoma (HepG-2), and colorectal carcinoma (HCT-116) using the standard MTT method. The tested cell lines were selected depending on their VEGF overexpression. Sorafenib, the lead drug, was coassayed as a positive control.
(§2) The antiproliferative activity of the synthesized compounds was evaluated using MTT protocol as described (Supplementary data (available here)).

[2] = test system: BAX; assay: BAX level in HepG-2 cells; format: cell-based, human; conditions: for BAX Conc.: HepG-2 cells treated with compound; for BAX Fold: HepG-2 cells, versus control
Text: (§3) (2) Effects on Bcl-2 Family Proteins. The Bcl-2 family proteins are vital regulators of apoptosis cell death. Members of this family include the proapoptotic factor Bax which promotes cell death and the prosurvival (antiapoptotic) Bcl-2 which suppresses cell death. […] Results are expressed in Table 3.
(§4) (2) Effects on Bcl-2 Family Proteins. […] (Supplementary data).

[3] = test system: HepG-2; assay: MTT antiproliferative assay, HepG-2; format: cell-based; conditions: Homo sapiens, HepG2, hepatocellular carcinoma HepG-2
Experimental: as §1, §2

[4] = test system: MCF-7, HepG-2, and HCT-116; assay: MTT antiproliferative assay, panel of three tumor cell lines (range over lines); format: cell-based; conditions: Homo sapiens, range over the three cancer cell lines, read-out: cytotoxic IC50, range over MCF-7, HepG-2 and HCT-116
Experimental: as §1, §2

[5] = test system: caspase-3; assay: Active caspase-3 level in HepG-2 cells; format: cell-based, human; conditions: for Caspase 3 Conc.: HepG-2 cells treated with compound; for Caspase 3 Fold: HepG-2 cells, versus control
Text: (1) Effects on the Levels of Active Caspase-3. A significant mechanism by which anticancer agents can affect cancer cells is apoptosis. Apoptosis is a process of automated cell death. The apoptosis mechanism is typically mediated by a group of proteases called caspases. Caspase-3 is activated in every mammalian cell type provoking the cell to die, considered one of the apoptosis marks.
(1) Effects on the Levels of Active Caspase-3. […] (Supplementary data).

[6] = test system: TNF-α; assay: TNF-α in HepG-2 supernatant (ELISA); format: cell-based, human
Text: (1) Estimation of Human Tumor Necrosis Factor Alpha (TNF-α) in HepG-2 Supernatant. […] Celecoxib, a potent inhibitor of TNF-α-induced cytokine expressions, was used as a positive control. […] Among the tested compounds, compound 7a caused a remarkably significant reduction in TNF-α levels (87%) in comparison to celecoxib (86%).
The levels of TNF-α in cell culture supernatants were estimated by the ELISA technique according to the reported procedure.

[7] = biological target: VEGFR-2 (Homo sapiens, UniProt P35968); assay: In vitro VEGFR-2 enzyme inhibition assay; format: biochemical; conditions: read-out: IC50 against VEGFR-2
[8] = test system: Bcl-2; assay: Bcl-2 level in HepG-2 cells; format: cell-based, human; conditions: for Bcl-2 Conc.: HepG-2 cells treated with compound; for Bcl-2 Fold: HepG-2 cells, versus control
Text: as §3, §4

[9] = test system: WI-38 cell line (normal human lung fibroblasts); assay: MTT cytotoxicity against normal cells WI-38; format: cell-based; conditions: normal human lung fibroblasts WI-38
Experimental: The cytotoxicity values of the synthesized compounds against the WI-38 cell line (normal human lung fibroblasts) were also evaluated in vitro.
as §2

[10] = test system: MCF-7; assay: MTT antiproliferative assay, MCF-7; format: cell-based; conditions: Homo sapiens, MCF7, breast cancer MCF-7
Experimental: as §1, §2

[11] = test system: HepG-2 cells; assay: Annexin V-FITC/PI apoptosis assay; format: cell-based, human; conditions: HepG-2, IC50 dose (2.17 μM), 24 h
Experimental: (5) Apoptotic Cell Subpopulation Determination. To support the fact that derivative 7a induces apoptosis in the HepG-2 cancer cell line, annexin V-FITC and PI double-staining assay protocol was used. […] This is evidence that the antiproliferative activities are associated with a proapoptotic effect of the tested compound.
(4) Apoptotic Cell Subpopulation Determination. The annexin-V-FITC assay for compound 7a on HepG-2 cells was performed according to the reported procedure (Supplementary data).

[12] = test system: HepG-2 cells; assay: Cell cycle analysis by flow cytometry; format: cell-based, human; conditions: HepG-2, compound at its IC50 concentration
Experimental: (3) Cell Cycle Analysis. For further investigation of the apoptotic capacity of compound 7a, flow cytometric analysis was carried out on the HepG-2 cancer cell line treated with the tested compound at its IC50 concentrations using untreated HepG-2 cancer cells as a negative control. […] Accumulation of cells at the G2-M phase for 7a was estimated to be 46.74% versus 23.11% accumulation for control HepG-2 cells.
(3) Cell Cycle Analysis. According to the method described by Léonce et al., the flow cytometric analysis for compound 7a was performed (Supplementary data).

[13] = test system: VEGFR-2 protein expression; assay: Western blot of VEGFR-2 protein expression; format: cell-based, human; conditions: HepG-2 cells, 10 h exposure, versus blank
Text: (4) Effect of Compound 7a on VEGFR-2 Protein Expression.

[14] = test system: vascular smooth muscle cells (VSMCs); assay: Vascular smooth muscle cell proliferation; format: cell-based; conditions: 2.5, 5, and 10 μM, 48 h
Experimental: In order to examine its effect on the proliferation of vascular smooth muscle cells (VSMCs), VSMCs were treated with increasing concentrations of compound 7a (2.5, 5, and 10 μM) for 48 h. The cellular proliferation results are illustrated in Figure 9.
VSMCs were isolated and cultured following the reported method (Supplementary data).

Chain of VEGFR-2 (P35968 20-1356): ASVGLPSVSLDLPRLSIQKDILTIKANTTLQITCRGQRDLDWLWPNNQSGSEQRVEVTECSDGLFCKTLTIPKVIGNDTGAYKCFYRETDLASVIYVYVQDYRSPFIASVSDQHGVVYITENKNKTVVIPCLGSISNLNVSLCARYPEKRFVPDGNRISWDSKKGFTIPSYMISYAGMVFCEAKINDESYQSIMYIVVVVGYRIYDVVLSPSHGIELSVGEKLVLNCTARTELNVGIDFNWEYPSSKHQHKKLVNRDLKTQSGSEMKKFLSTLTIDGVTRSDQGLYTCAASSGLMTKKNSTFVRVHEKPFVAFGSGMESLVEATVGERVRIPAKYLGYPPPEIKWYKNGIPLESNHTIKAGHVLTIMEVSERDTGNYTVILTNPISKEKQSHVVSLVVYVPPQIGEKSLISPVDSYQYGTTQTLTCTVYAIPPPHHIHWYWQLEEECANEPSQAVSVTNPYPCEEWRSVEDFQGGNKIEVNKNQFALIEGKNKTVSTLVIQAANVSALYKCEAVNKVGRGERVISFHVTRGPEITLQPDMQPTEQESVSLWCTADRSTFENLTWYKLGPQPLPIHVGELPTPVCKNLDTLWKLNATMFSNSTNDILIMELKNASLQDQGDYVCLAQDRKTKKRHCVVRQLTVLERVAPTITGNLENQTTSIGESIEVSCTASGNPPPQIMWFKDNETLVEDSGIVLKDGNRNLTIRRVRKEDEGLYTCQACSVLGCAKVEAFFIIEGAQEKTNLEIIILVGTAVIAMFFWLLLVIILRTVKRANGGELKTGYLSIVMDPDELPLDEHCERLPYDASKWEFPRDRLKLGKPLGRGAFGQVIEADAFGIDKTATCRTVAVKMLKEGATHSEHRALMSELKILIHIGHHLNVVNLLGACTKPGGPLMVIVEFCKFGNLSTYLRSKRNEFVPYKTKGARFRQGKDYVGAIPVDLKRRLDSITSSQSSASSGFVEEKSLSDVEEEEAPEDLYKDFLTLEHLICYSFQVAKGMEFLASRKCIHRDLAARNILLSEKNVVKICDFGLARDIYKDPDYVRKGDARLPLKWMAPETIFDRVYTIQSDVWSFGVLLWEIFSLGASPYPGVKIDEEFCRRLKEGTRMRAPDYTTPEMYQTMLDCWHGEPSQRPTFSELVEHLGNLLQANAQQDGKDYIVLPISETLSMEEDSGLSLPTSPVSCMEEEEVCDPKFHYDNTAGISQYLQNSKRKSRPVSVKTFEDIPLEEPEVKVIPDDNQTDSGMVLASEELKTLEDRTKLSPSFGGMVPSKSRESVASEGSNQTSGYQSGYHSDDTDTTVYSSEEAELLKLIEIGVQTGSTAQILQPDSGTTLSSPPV

Structure (SMILES)	IC50 [1] [µM]	BAX Conc. [2] [pg/mL]	BAX Fold [2] [fold]	IC50 [3] [µM]	IC50 [4] [µM]	Caspase 3 Conc. [5] [pg/mL]	Caspase 3 Fold [5] [fold]	TNF-α % inhibition [6] [%]	IC50 [7] [µM]	Bcl-2 Conc. [8] [pg/mL]	Bcl-2 Fold [8] [fold]	IC50 [9] [µM]	IC50 [10] [µM]	melting point [°C]	other results
O=C(N/N=C/c1ccccc1Cl)c1ccc(NC(=O)c2cccnc2)cc1 [Compound 11f, (E)-N-(4-(2-(2-Chlorobenzylidene)hydrazine-1-carbonyl)phenyl)-nicotinamide]	3.47	142.5	6.60	7.05	3.47 to 7.31	292.11	5.68	60	4.17	2.25	0.42	62.4	6.15	–	–
Cc1ccccc1NC(=O)c1ccc(NC(=O)c2cccnc2)cc1 [Compound 7f, N-(4-(o-Tolylcarbamoyl)phenyl)nicotinamide]	18.3	–	–	31.4	14.1 to 31.4	–	–	–	–	–	–	157	20.5	194 to 197	–
CN(C)c1ccc(/C=N/NC(=O)c2ccc(NC(=O)c3cccnc3)cc2)cc1 [Compound 11g, (E)-N-(4-(2-(4-(Dimethylamino)benzylidene)hydrazine-1-carbonyl)phenyl)-nicotinamide]	4.8	160.2	7.42	6.42	3.47 to 7.31	324.36	6.31	47	6.12	2.55	0.48	70.1	5.73	–	–
O=C(N/N=C/c1ccc([N+](=O)[O-])cc1)c1ccc(NC(=O)c2cccnc2)cc1 [Compound 11c, (E)-N-(4-(2-(4-Nitrobenzylidene)hydrazine-1-carbonyl)phenyl)-nicotinamide]	5.72	133.2	6.17	7.31	3.47 to 7.31	271.41	5.28	31	8.09	2.81	0.52	52.3	6.29	–	–
Cc1cccc(NC(=O)c2ccc(NC(=O)c3cccnc3)cc2)c1 [Compound 7h, N-(4-(m-Tolylcarbamoyl)phenyl)nicotinamide]	22.7	–	–	14.9	14.1 to 31.4	–	–	–	–	–	–	95.1	19.2	217 to 219	–
COc1cccc(NC(=O)c2ccc(NC(=O)c3cccnc3)cc2)c1 [Compound 7a, N-(4-((3-Methoxyphenyl)carbamoyl)phenyl)nicotinamide]	1.46	261.4	12.11	1.05	–	401.15	–	87	2.17	1.25	0.23	60.8	1.37	–	early apoptotic population [11]: 7.41%; late apoptotic population [11]: 6.80%; accumulation of cells at the G2-M phase [12]: 46.74%; apoptotic cells at the pre-G1 phase [12]: 10.5%; percentage of cells at G1 [12]: 30.15%; percentage of cells at the S phase [12]: 22.11%; effect on VEGFR-2 protein expression [13]: downregulated the expression of VEGFR-2 protein; effect on VSMC proliferation [14]: potent inhibitory effect; also recorded: significant antiproliferative effect at all concentrations tested
Cc1ccc(NC(=O)c2ccc(NC(=O)c3cccnc3)cc2)cc1 [Compound 7j, N-(4-(p-Tolylcarbamoyl)phenyl)nicotinamide]	15.1	–	–	14.1	14.1 to 31.4	–	–	–	–	–	–	84.9	16.8	219 to 222	–
O=C(Nc1ccc(C(=O)NC2CCCCC2)cc1)c1cccnc1 [Compound 5, N-(4-(Cyclohexylcarbamoyl)phenyl)nicotinamide]	1.6	232.7	10.78	3.29	–	345.5	6.72	85	2.46	1.35	0.25	61.4	4.66	–	–
Cc1ccc(NC(=O)c2ccc(NC(=O)c3cccnc3)cc2)c(C)c1 [Compound 7k, N-(4-((2,4-Dimethylphenyl)carbamoyl)phenyl)nicotinamide]	18.7	–	–	20.1	14.1 to 31.4	–	–	–	–	–	–	75.3	17.1	254 to 256	–
